Results: patent publication US7157430B2, “(Substituted)acyl dipeptidyl inhibitors of the ICE/CED-3 family of cysteine proteases” (Idun Pharmaceuticals, Inc., priority 1998, dated 2007)

Experiments:
Assay type in all cases: biochemical
Details in all cases: continuous assay 60 min, reaction initiated by adding enzyme
[1] = target: T1, CPP32 (Homo sapiens, UniProt P42574); assay: Dissociation constant Ki and irreversible rate constant k3 for irreversible inhibitors, CPP32
T1 sequence (P42574 29-175 limits assumed): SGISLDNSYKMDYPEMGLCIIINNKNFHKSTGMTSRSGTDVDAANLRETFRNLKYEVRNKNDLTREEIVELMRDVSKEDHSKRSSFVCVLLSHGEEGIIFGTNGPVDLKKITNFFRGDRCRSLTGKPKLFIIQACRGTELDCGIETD
T1 sequence (P42574 176-277 limits assumed): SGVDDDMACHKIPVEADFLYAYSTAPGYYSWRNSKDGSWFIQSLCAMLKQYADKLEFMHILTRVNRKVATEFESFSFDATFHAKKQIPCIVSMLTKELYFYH
Text: (§1) For the irreversible inhibition of a ICE/ced-3 Family Protease enzyme with a competitive irreversible inhibitor; using the model represented by the following formulas: […]
(§2) The product formation at time t may be expressed as:
(§3) [formula] where E, I, EI and E-I denote the active enzyme, inhibitor, non-covalent enzyme-inhibitor complex and covalent enzyme-inhibitor adduct, respectively. The Ki value is the overall dissociation constant of the reversible binding steps, and k3 is the irreversible rate constant. The [S] and Ks values are the substate concentration and dissociation constant of the substrate bound to the enzyme, respectively. [E]^T is the total enzyme concentration.
(§4) The above equations were used to determine the Ki and k3 values of a given inhibitor bound to a ICE/ced-3 family protease. Thus, a continuous assay was run for sixty minutes at various concentrations of the inhibitor and the substrate. The assay was formulated essentially the same as described above for generating the data in Table 1, except that the reaction was initiated by adding the enzyme to the substrate-inhibitor mixture. The Ki and k3 values were obtained by simulating the product AMC formation as a function of time according to Equation 1.
(§5) The reference compound for this assay was Cbz-ValAlaAsp-CH2F and the values are denoted in Table 2 as “Reference”. The Ki values in Table 2 are in micromolar (μM). The k3/Ki values are in moles^−1 seconds^−1 (M^−1s^−1).

[2] = target: T2, MCH-2 (Homo sapiens, UniProt P55212); assay: Dissociation constant Ki and irreversible rate constant k3 for irreversible inhibitors, Mch2
T2 sequence (P55212 24-179 limits assumed): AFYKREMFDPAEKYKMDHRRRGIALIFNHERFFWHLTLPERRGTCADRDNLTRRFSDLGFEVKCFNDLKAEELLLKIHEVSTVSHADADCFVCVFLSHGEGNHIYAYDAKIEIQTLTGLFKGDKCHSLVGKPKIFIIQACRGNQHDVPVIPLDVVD
T2 sequence (P55212 194-293 limits assumed): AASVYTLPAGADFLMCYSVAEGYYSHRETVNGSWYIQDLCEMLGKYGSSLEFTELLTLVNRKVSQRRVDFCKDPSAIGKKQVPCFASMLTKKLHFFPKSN
Text: as §1, §2, §3, §4, §5

[3] = target: T3, mICE (Mus musculus, UniProt P29452); assay: Dissociation constant Ki and irreversible rate constant k3 for irreversible inhibitors, ICE
T3 sequence (P29452 123-296 limits assumed): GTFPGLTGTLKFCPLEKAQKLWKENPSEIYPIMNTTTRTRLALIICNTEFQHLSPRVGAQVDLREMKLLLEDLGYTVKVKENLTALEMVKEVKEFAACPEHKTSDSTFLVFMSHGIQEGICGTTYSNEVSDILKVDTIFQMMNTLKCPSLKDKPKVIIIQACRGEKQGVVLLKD
T3 sequence (P29452 315-402 limits assumed): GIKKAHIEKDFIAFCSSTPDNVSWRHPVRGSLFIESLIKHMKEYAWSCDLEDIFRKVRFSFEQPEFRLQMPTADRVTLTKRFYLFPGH
Text: as §1, §2, §3, §4, §5

[4] = target: MCH-5 (Homo sapiens, UniProt Q14790); assay: Dissociation constant Ki and irreversible rate constant k3 for irreversible inhibitors, Mch5
Text: as §1, §2, §3, §4, §5

MCH-5, sequence (Q14790 217-374 limits assumed, species assumed): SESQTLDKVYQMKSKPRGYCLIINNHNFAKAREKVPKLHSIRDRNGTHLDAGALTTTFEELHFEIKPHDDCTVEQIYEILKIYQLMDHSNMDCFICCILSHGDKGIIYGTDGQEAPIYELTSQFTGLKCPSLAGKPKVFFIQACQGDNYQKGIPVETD
MCH-5, sequence (Q14790 385-479 limits assumed, species assumed): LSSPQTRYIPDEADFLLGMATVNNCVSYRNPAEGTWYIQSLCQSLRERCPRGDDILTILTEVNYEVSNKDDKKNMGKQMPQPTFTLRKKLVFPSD

| SMILES | CPP32 k3/Ki [1] | Ki [1] [nM] | Ki [2] [nM] | MCH-2 k3/Ki [2] | Ki [3] [nM] | mICE k3/Ki [3] | Ki [4] [nM] | MCH-5 k3/Ki [4] |
| --- | --- | --- | --- | --- | --- | --- | --- | --- |
| CC(C)[C@H](NC(=O)COc1cccc2ccccc12)C(=O)N[C@@H](CC(=O)O)C(=O)COc1c(F)cccc1F [Example 71] | 200,000 M^−1s^−1 | 39 | 38 | 9,980 M^−1s^−1 | 193 | 53,900 M^−1s^−1 | 120 | 9,100 M^−1s^−1 |
| CC(C)C[C@H](NC(=O)COc1ccccc1-c1ccccc1)C(=O)N[C@@H](CC(=O)O)C(=O)COP(=O)(c1ccccc1)c1ccccc1 [Example 161] | 319,000 M^−1s^−1 | 19 | 30 | 149,000 M^−1s^−1 | 98 | 86,400 M^−1s^−1 | 105 | 15,200 M^−1s^−1 |
| CC(C)[C@H](NC(=O)COc1cccc2ccccc12)C(=O)N[C@@H](CC(=O)O)C(=O)COc1c(F)ccc(F)c1F [Example 76] | 188,000 M^−1s^−1 | 63 | 58 | 81,700 M^−1s^−1 | 90 | 47,100 M^−1s^−1 | 81 | 17,000 M^−1s^−1 |
| Cc1nnc(SCC(=O)[C@H](CC(=O)O)NC(=O)[C@@H](NC(=O)COc2cccc3ccccc23)C(C)C)s1 [Example 128] | 5,240 M^−1s^−1 | 254 | 2410 | 83 M⁻¹ s⁻¹ | 213 | 5,480 M^−1s^−1 | 4480 | 0 M⁻¹ s⁻¹ |
| CC(C)[C@H](NC(=O)COc1cccc2ccccc12)C(=O)N[C@@H](CC(=O)O)C(=O)COc1cccc(F)c1F [Example 68] | 28,800 M^−1s^−1 | 110 | 383 | 1,610 M^−1s^−1 | 355 | 14,800 M^−1s^−1 | 821 | 200 M⁻¹ s⁻¹ |
| CC(C)[C@H](NC(=O)COc1cccc2ccccc12)C(=O)N[C@@H](CC(=O)O)C(=O)COP(=O)(c1ccccc1)c1ccccc1 [Example 103] | 351,000 M^−1s^−1 | 38 | 38 | 39,700 M^−1s^−1 | 63 | 143,000 M^−1s^−1 | 25 | 59,300 M^−1s^−1 |
| C[C@H](NC(=O)COc1ccccc1-c1ccccc1)C(=O)NC(CC(=O)O)C(=O)COc1c(F)c(F)cc(F)c1F (stereo partly drawn) [Example 177] | 89,700 M^−1s^−1 | 86 | 47 | 21,100 M^−1s^−1 | 225 | 45,600 M^−1s^−1 | 439 | 4,370 M^−1s^−1 |
| CC(C)[C@H](NC(=O)COc1cccc2ccccc12)C(=O)N[C@@H](CC(=O)O)C(=O)COc1c(F)c(F)cc(F)c1F [Example 79] | 268,000 M^−1s^−1 | 42 | 6 | 78,900 M^−1s^−1 | 91 | 77,500 M^−1s^−1 | 34 | 30,200 M^−1s^−1 |
| O=C(O)CC(NC(=O)[C@@H]1CCCCN1C(=O)COc1cccc2ccccc12)C(=O)CF (stereo partly drawn) [Example 59] | 14,400 M^−1s^−1 | 942 | 71 | 10,100 M^−1s^−1 | 184 | 46,300 M^−1s^−1 | 90 | 17,600 M^−1s^−1 |
| CC(C)[C@H](NC(=O)COc1cccc2ccccc12)C(=O)N[C@@H](CC(=O)O)C(=O)COc1c(-c2ccccc2)oc2ccccc2c1=O [Example 115] | 127,000 M^−1s^−1 | 46 | 54 | 0 M⁻¹ s⁻¹ | 324 | 8,740 M^−1s^−1 | 4670 | 0 M⁻¹ s⁻¹ |
| CC(C)[C@H](NC(=O)COc1cccc2ccccc12)C(=O)N[C@@H](CC(=O)O)C(=O)COc1cc(F)c(F)cc1F [Example 77] | 24,400 M^−1s^−1 | 123 | 526 | 630 M⁻¹ s⁻¹ | 262 | 11,500 M^−1s^−1 | 1500 | 670 M⁻¹ s⁻¹ |
| CCCCCCP(=O)(OCC(=O)[C@H](CC(=O)O)NC(=O)[C@@H](NC(=O)COc1cccc2ccccc12)C(C)C)c1ccc(F)cc1 (stereo partly drawn) [Example 109] | 48,300 M^−1s^−1 | 136 | 119 | 16,800 M^−1s^−1 | 453 | 15,500 M^−1s^−1 | 219 | 4,070 M^−1s^−1 |
| CC(C)[C@H](NC(=O)COc1cccc2ccccc12)C(=O)N[C@@H](CC(=O)O)C(=O)COP(=O)(Cc1ccccc1)c1ccccc1 (stereo partly drawn) [Example 107] | 424,000 M^−1s^−1 | 14 | 21 | 187,000 M^−1s^−1 | 66 | 106,000 M^−1s^−1 | 48 | 27,800 M^−1s^−1 |
| CC(C)[C@H](NC(=O)CCOc1ccccc1)C(=O)N[C@@H](CC(=O)O)C(=O)COc1c(F)c(F)cc(F)c1F [Example 160, (3S)-3-[N-(3′-(Phenoxy)Propionyl)Valinyl]Amino-5-(2,3,5,6-Tetrafluorophenoxy)-4-Oxopentanoic Acid] | 33,000 M^−1s^−1 | 132 | 93 | 36,600 M^−1s^−1 | 1180 | 11,400 M^−1s^−1 | 351 | 3,680 M^−1s^−1 |
| CC(C)[C@H](NC(=O)COc1ccc2ccccc2c1)C(=O)N[C@@H](CC(=O)O)C(=O)COc1c(F)cc(F)cc1F [Example 156] | 49,700 M^−1s^−1 | 148 | 52 | 14,900 M^−1s^−1 | 438 | 20,200 M^−1s^−1 | 293 | 3,990 M^−1s^−1 |
